We go through 25 compounds from patent US11407738B2 (Achillion Pharmaceuticals, Inc., priority 2015, dated 2022).

Bounds are passed on as bounds.

One may read the IC50 as the point on the concentration scale where inhibition reaches its midpoint.

Sequence of Human Factor D (P00746 26-253): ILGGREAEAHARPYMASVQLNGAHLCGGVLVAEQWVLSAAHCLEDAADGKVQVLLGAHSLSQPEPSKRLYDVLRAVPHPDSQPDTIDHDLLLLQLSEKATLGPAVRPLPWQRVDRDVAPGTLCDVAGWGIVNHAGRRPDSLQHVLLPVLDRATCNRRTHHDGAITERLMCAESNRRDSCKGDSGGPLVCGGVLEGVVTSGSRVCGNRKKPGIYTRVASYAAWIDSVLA

One assay deals with Human Factor D (Homo sapiens (Human), UniProt P00746). As to the kind of experiment: Human Factor D assay. The format is biochemical. The settings on record: Table 3; Factor D inhibition, substrate Z-L-Lys-SBzl. The protocol:
Human Factor D (purified from human serum, Complement Technology, Inc.) at 80 nM final concentration is incubated with test compound at various concentrations for 5 min at room temperature in 50 mM Tris, 1M NaCl, pH 7.5. A synthetic substrate Z-L-Lys-SBzl and DTNB (Ellman's reagent) are added to final concentrations of 100 μM each. […] IC50 values are calculated by nonlinear regression of complement Factor D reaction rates as a function of test compound concentration.
Regarding `CC(=O)c1nn(CC(=O)N2CCC[C@@H]2CC(=O)O)c2ccc(-c3cnc(C)nc3)cc12` [Compound 510, (R)-2-(1-(2-(3-acetyl-5-(2-methylpyrimidin-5-yl)-1H-indazol-1-yl)acetyl)pyrrolidin-2-yl)acetic acid], the IC50 was more than 10 µM.

With `CO[C@@H]1CO[C@H]2[C@@H]1OC[C@H]2Oc1ncc(-c2ccc3c(c2)c(C(C)=O)cn3CC(=O)N2C[C@H](F)C[C@H]2C(=O)Nc2cccc(-c3ccccc3Cl)c2F)cn1` [Compound 503, (2S,4R)-1-(2-(3-Acetyl-5-(2-((3R,3aR,6R,6aR)-6-methoxyhexahydrofuro[3,2-b]furan-3-yloxy)pyrimidin-5-yl)-1H-indol-1-yl)acetyl)-N-(2′-chloro-2-fluorobiphenyl-3-yl)-4-fluoropyrrolidine-2-carboxamide], the IC50 was less than 1 µM. The same measure, in the same setting: the figure for `CC(=O)Cc1nn(CC(=O)N2C[C@H](F)C[C@H]2C(=O)Nc2cccc(Br)n2)c2ccc(-c3cnc(C)nc3)cc12` [Compound 522, (2S,4R)-N-(6-bromopyridin-2-yl)-4-fluoro-1-(2-(5-(2-methylpyrimidin-5-yl)-3-(2-oxopropyl)-1H-indazol-1-yl)acetyl)pyrrolidine-2-carboxamide] is less than 1 µM.

The compound `CO[C@@H]1CO[C@H]2[C@@H]1OC[C@H]2Oc1ncc(-c2ccc3c(c2)c(C(C)=O)cn3CC(=O)N2C[C@H](F)C[C@H]2C(=O)Nc2cccc(Br)n2)cn1` [Compound 508, (2S,4R)-1-(2-(3-Acetyl-5-(2-((3R,3aR,6R,6aR)-6-methoxyhexahydrofuro[3,2-b]furan-3-yloxy)pyrimidin-5-yl)-1H-indol-1-yl)acetyl)-N-(6-bromopyridin-2-yl)-4-fluoropyrrolidine-2-carboxamide] displayed an IC50 of less than 1 µM.

`CC(=O)c1nn(CC(=O)N2C[C@H](F)C[C@H]2C(=O)Nc2cccc(-c3ccc4scnc4c3)c2F)c2ccc(-c3cnc4cc(C)nn4c3)cc12` [Compound 519, (2S,4R)-1-(2-(3-acetyl-5-(2-methylpyrazolo[1,5-a]pyrimidin-6-yl)-1H-indazol-1-yl)acetyl)-N-(3-(benzo[d]thiazol-5-yl)-2-fluorophenyl)-4-fluoropyrrolidine-2-carboxamide]: the IC50 was less than 1 µM.

In turn, `CC(=O)c1cn(CC(=O)N(C)[C@H](C(=O)Nc2cccc(-c3ccccc3Cl)c2F)[C@@H](C)O)c2ccc(-c3cnc(C)nc3)cc12` [Compound 506, (2S,3R)-2-(2-(3-Acetyl-5-(2-methylpyrimidin-5-yl)-1H-indol-1-yl)-N-methylacetamido)-N-(2′-chloro-2-fluorobiphenyl-3-yl)-3-hydroxybutanamide] showed an IC50 of 1 to 10 µM.

Still in this assay, the particulars now being: Table 4; Factor D inhibition, substrate Z-L-Lys-SBzl.
`CC(=O)c1nn(CC(=O)N2CC=CC[C@H]2C(=O)Nc2cccc(Br)n2)c2ccc(-c3cnc(C)nc3)cc12` [Compound 573, (S)-1-(2-(3-Acetyl-5-(2-methylpyrimidin-5-yl)-1H-indazol-1-yl)acetyl)-N-(6-bromopyridin-2-yl)-1,2,3,6-tetrahydropyridine-2-carboxamide] displayed an IC50 of less than 1 µM. On the same count and under the same terms, in the case of `Cc1cccc(NC(=O)[C@@H]2CCC(F)CCN2C(=O)Cn2cc(C(N)=O)c3cc(-c4cccnc4)ccc32)n1` (stereo partly drawn) [Compound 588, 1-(2-((2S)-5-Fluoro-2-((6-methylpyridin-2-yl)carbamoyl)azepan-1-yl)-2-oxoethyl)-5-(pyridin-3-yl)-1H-indole-3-carboxamide] it was more than 10 µM; in that of `CC(=O)c1nn(CC(=O)N2C[C@H](F)C[C@H]2C(=O)Nc2cccc(Br)n2)c2ccc(N3C[C@H]4CCCC[C@H]4C3)cc12` [Compound 621, (2S,4R)-1-(2-(3-acetyl-5-((3aR,7aS)-hexahydro-1H-isoindol-2(3H)-yl)-1H-indazol-1-yl)acetyl)-N-(6-bromopyridin-2-yl)-4-fluoropyrrolidine-2-carboxamide], less than 1 µM; in that of `COc1cc(CC(=O)N2C[C@H](F)C[C@H]2C(=O)Nc2cccc(-c3ccccc3Cl)c2F)cc(-c2cnc(C)nc2)c1` [Compound 636, (2S,4R)—N-(2′-chloro-2-fluoro-[1,1′-biphenyl]-3-yl)-4-fluoro-1-(2-(3-methoxy-5-(2-methylpyrimidin-5-yl)phenyl)acetyl)pyrrolidine-2-carboxamide], less than 1 µM. Compound `CC[C@H](C(=O)Nc1cccc(Br)n1)N(C)C(=O)Cn1nc(C(C)=O)c2cc(-c3cnc(C)nc3)ccc21` [Compound 597, (R)-2-(2-(3-acetyl-5-(2-methylpyrimidin-5-yl)-1H-indazol-1-yl)-N-methylacetamido)-N-(6-bromopyridin-2-yl)butanamide] displayed an IC50 of more than 10 µM. `CC(=O)c1nn(CC(=O)N2CCC[C@H](CNC(=O)c3cccc(Br)n3)C2)c2ccc(-c3cnc(C)nc3)cc12` [Compound 556, (R)—N-((1-(2-(3-Acetyl-5-(2-methylpyrimidin-5-yl)-1H-indazol-1-yl)acetyl)piperidin-3-yl)methyl)-6-bromopicolinamide] came in with an IC50 of more than 10 µM. Still for that read-out and setting: in the case of `CC(=O)c1nn(CC(=O)N2C[C@H](F)C[C@H]2CC(=O)Nc2cccc(Br)n2)c2ccc(-c3cnc(C)nc3)cc12` [Compound 580, 2-((2R,4R)-1-(2-(3-Acetyl-5-(2-methylpyrimidin-5-yl)-1H-indazol-1-yl)acetyl)-4-fluoropyrrolidin-2-yl)-N-(6-bromopyridin-2-yl)acetamide] it was more than 10 µM; in that of `CC(=O)c1nn(CC(=O)N2C[C@H](F)C[C@H]2c2nnc(-c3cccc(Cl)c3F)[nH]2)c2ccc(-c3cnc(C)nc3)cc12` [Compound 571, 2-(3-acetyl-5-(2-methylpyrimidin-5-yl)-1H-indazol-1-yl)-1-((2S,4R)-2-(5-(3-chloro-2-fluorophenyl)-4H-1,2,4-triazol-3-yl)-4-fluoropyrrolidin-1-yl)ethan-1-one], more than 10 µM; in that of `CC(=O)c1nn(CC(=O)N2C[C@H](F)C[C@H]2C(=O)Nc2cccc(-c3ccc4scnc4c3)c2F)c2ccc(-c3cnc(C)nc3)cc12` [Compound 638, (2S,4R)-1-(2-(3-acetyl-5-(2-methylpyrimidin-5-yl)-1H-indazol-1-yl)acetyl)-N-(3-(benzo[d]thiazol-5-yl)-2-fluorophenyl)-4-fluoropyrrolidine-2-carboxamide], less than 1 µM. Take `Cc1cccc(NC(=O)[C@@H]2CCC(F)CCN2C(=O)Cn2cc(C(N)=O)c3cc(-c4cnc(C)nc4)ccc32)n1` (stereo partly drawn) [Compound 578, 1-(2-((2S)-5-Fluoro-2-((6-methylpyridin-2-yl)carbamoyl)azepan-1-yl)-2-oxoethyl)-5-(2-methylpyrimidin-5-yl)-1H-indole-3-carboxamide]: the IC50 is more than 10 µM. `Cc1cccc(NC(=O)[C@@H]2CCC(F)CCN2C(=O)Cn2cc(C(N)=O)c3cc(-c4cnc5cc(C)nn5c4)ccc32)n1` (stereo partly drawn) [Compound 614, 1-(2-((2S)-5-Fluoro-2-((6-methylpyridin-2-yl)carbamoyl)azepan-1-yl)-2-oxoethyl)-5-(2-methylpyrazolo[1,5-a]pyrimidin-6-yl)-1H-indole-3-carboxamide] returned an IC50 of more than 10 µM. On the same count and under the same terms, the figure for `CC(=O)c1nn(CC(=O)N2C[C@H](F)C[C@H]2C[S+]([O-])c2cccc(Br)n2)c2ccc(-c3cnc(C)nc3)cc12` (stereo partly drawn) [Compound 604, 2-(3-Acetyl-5-(2-methylpyrimidin-5-yl)-1H-indazol-1-yl)-1-((2S,4R)-2-(((6-bromopyridin-2-yl)sulfinyl)methyl)-4-fluoropyrrolidin-1-yl)ethan-1-one] is 1 to 10 µM; for `CC(=O)c1nn(CC(=O)N2C[C@H](F)C[C@@H]2c2nnc(-c3cccc(Cl)c3F)[nH]2)c2ccc(-c3cnc(C)nc3)cc12` [Compound 572, 2-(3-acetyl-5-(2-methylpyrimidin-5-yl)-1H-indazol-1-yl)-1-((2R,4R)-2-(5-(3-chloro-2-fluorophenyl)-4H-1,2,4-triazol-3-yl)-4-fluoropyrrolidin-1-yl)ethan-1-one] it is more than 10 µM. On the same count and under the same terms, the figure for `CC(=O)c1nn(CC(=O)N2C[C@H](F)C[C@H]2CC(=O)NO)c2ccc(-c3cnc(C)nc3)cc12` [Compound 592, 2-((2R,4R)-1-(2-(3-Acetyl-5-(2-methylpyrimidin-5-yl)-1H-indazol-1-yl)acetyl)-4-fluoropyrrolidin-2-yl)-N-hydroxyacetamide] is more than 10 µM. Consider `CC(=O)c1nn(CC(=O)N2C[C@H](F)C[C@H]2c2nnc(CCCC(F)(F)F)[nH]2)c2ccc(-c3cnc(C)nc3)cc12` [Compound 584, 2-(3-Acetyl-5-(2-methylpyrimidin-5-yl)-1H-indazol-1-yl)-1-((2S,4R)-4-fluoro-2-(5-(4,4,4-trifluorobutyl)-4H-1,2,4-triazol-3-yl)pyrrolidin-1-yl)ethan-1-one], for which the IC50 lay within 1 to 10 µM. The same measure, in the same setting: the figure for `CC(=O)c1cc(CC(=O)N2C[C@H](F)C[C@H]2C(=O)Nc2cccc(Br)n2)n2ccc(-c3cnc(C)nc3)cc12` [Compound 643] is less than 1 µM.

The compound `Cc1cccc(NC(=O)[C@@H]2CCC(F)CCN2C(=O)Cn2cc(C(N)=O)c3cc(-c4ccc5c(c4)CC5)ccc32)n1` (stereo partly drawn) [Compound 587, 5-(1,2-Dihydrocyclobutabenzen-4-yl)-1-(2-((2S)-5-fluoro-2-(6-methylpyridin-2-ylcarbamoyl)azepan-1-yl)-2-oxoethyl)-1H-indole-3-carboxamide] yielded an IC50 of more than 10 µM. Still for that read-out and setting: the figure for `CC(=O)c1nn(CC(=O)N2C[C@H](F)C[C@H]2c2nnc(CCCC(F)(F)F)o2)c2ccc(-c3cnc(C)nc3)cc12` [Compound 583, 2-(3-Acetyl-5-(2-methylpyrimidin-5-yl)-H-indazol-1-yl)-1-((2S,4R)-4-fluoro-2-(5-(4,4,4-trifluorobutyl)-1,3,4-oxadiazol-2-yl)pyrrolidin-1-yl)ethan-1-one] is 1 to 10 µM.

Compound `COc1ccc(-c2ccc3c(c2)c(C(N)=O)cn3CC(=O)N2CCC(F)CC[C@H]2C(=O)Nc2cccc(C)n2)cn1` (stereo partly drawn) [Compound 596, 1-(2-((2S)-5-Fluoro-2-((6-methylpyridin-2-yl)carbamoyl)azepan-1-yl)-2-oxoethyl)-5-(6-methoxypyridin-3-yl)-1H-indole-3-carboxamide] showed an IC50 of more than 10 µM.
